# Source: US6884907B2, “Hydroxamic acids and acyl hydroxamines as naaladase inhibitors” (Guilford Pharmaceuticals Inc., priority 2001, dated 2005)
# Tests used:
# TGF-β [1] = test: Effect of NAALADase inhibition on TGF-β in in vitro ischemia model; assay type: cell-based; details: ischemic cell cultures
# Procedure: A NAALADase inhibitor, Compound C, was added to ischemia cell cultures to determine its effect on TGF-β levels during stroke.
# TGF-β neutralizing antibodies were then added to the ischemic cell cultures.
# [2] = test system: rats with sciatic nerve ligation; test: Neuropathic pain in chronic constriction injury (CCI) model; assay type: in vivo; details: 50 mg/kg i.p. daily starting 10 days post surgery, versus vehicle, FIG. 8
# Procedure: Sciatic nerve ligation, consisting of 4 ligatures tied loosely around the sciatic nerve at 1 mm intervals proximal to the nerve trifurcation, was performed on rats. […] The rats were habituated to a Hargreaves apparatus. An infrared heat source was directed onto the […] surface of each rat's hindpaws and the time taken for the rat to withdraw its paws was noted. The difference in scores between the latency of the response for the paw on the operated side versus the paw on the unoperated control side was determined. The rats received either Compound C (50 mg/kg i.p. daily) or a vehicle starting 10 days post surgery. […] Normal (unoperated) rats had approximately equal latencies for both paws. This effect was significant starting at 11 days of drug treatment and persisted through to the end of the study (for 21 days of daily dosing).
# TGF-β [3] = test: Effect of NAALADase inhibition on TGF-β in in vivo ischemia model (MCAO); details: MCAO rats
# Description: The effect of TGF-β neutralizing antibodies on the neuroprotective effect of Compound C was also studied in rats following MCAO.
# [4] = test system: Transgenic HD mice of the N171-82Q strain; test: Transgenic mouse model of Huntington's disease: behavioral testing (rotarod, locomotion); assay type: in vivo
# Procedure: Transgenic HD mice of the […]-[…] strain and non-transgenic littermates were treated with NAALADase inhibitor Compound B (30 mg/kg) or a vehicle from 10 weeks of age. The mice were placed on a rotating rod (“rotarod”). The length of time at which the mouse fell off the rotarod was recorded as a measure of motor coordination. […] The treatment with Compound B had no effect on the rotarod performance of normal non-HD mice. The total distance traveled by the mice was also recorded as a measure of overall locomotion.
# [5] = test system: rats with transected optic nerve; test: Optic nerve transection (optic nerve fiber counting); assay type: in vivo, Brown Norway rats (Rattus norvegicus); details: 2 weeks after transection
# Procedure: All experiments complied with the Association for Research in Vision and Ophthalmology Statement for the Use of Animals in Ophthalmic and Vision Research. 82 male Brown Norway rats (Rattus norvegicus), each weighing approximately 250 gm, were treated using procedures approved by the Animal Care Committee of the Johns Hopkins University School of Medicine. The rats were housed with a 12 hour light/12 hour dark cycle and fed ad libitum.
# OPTIC NERVE TRANSECTION: The optic nerve was transected unilaterally in 26 rats under intraperitoneal pentobarbital anesthesia. The conjunctiva was opened with scissors and the optic nerve exposed by traction on extraocular muscles. […]
# The area of the optic nerve cross-section was measured by outlining its outer border at 10× magnification on an image analysis system (Universal Imaging Corp., Westchester, Pa.) with Synsys digital camera and Metamorph software. Three area measurements were taken and the mean value was determined. […] These were edited to eliminate non-neural objects and the size of each axon internal to the myelin sheath (its minimum diameter) and the density of axons/square mm were calculated for each image and nerve. […] The number of axons counted among the 10 images was an approximately 20% sample of the 80-90,000 axons in normal rat nerves. […]
# [6] = test system: transgenic HD mice (N171-82Q); test: Transgenic mouse model of Huntington's disease: survival; assay type: in vivo
# Procedure: The effects of Compound B and vehicle on the survival of transgenic HD mice (N171-82Q) were evaluated. Thirteen mice (six male and seven female) were assigned to the Compound B treatment group, and fourteen mice (six male and eight female) were assigned to the vehicle treatment group. Treatment was continued until all the mice died.
# STZ-diabetic animals = test: Diabetic neuropathy in STZ model (nerve conduction velocity); assay type: in vivo, rats; details: 10 mg/kg daily
# Procedure: Motor and sensory nerve conduction velocity was also measured in STZ-diabetic animals after 4, 8 and 12 weeks of treatment (see De Koning et al., supra, for a description of the experimental method). Briefly, stimulating needle electrodes were inserted close to the sciatic and tibial nerves with recording electrodes being placed subcutaneously over the distal foot muscles, in anesthetized rats.
# BB/W diabetic rats = test: Progression of neuropathic pain and nerve conduction deficits in BB/W model; assay type: in vivo, Male BB/W rats
# Description: Male BB/W rats (BRI, Mass) spontaneously develop a cell mediated autoimmune destruction of pancreatic B cells, resulting in onset of insulin-dependent (Type I) diabetes (Guberski 1994). […] This renders them valuable for experimental trials of new compounds for future treatments of this major disorder. In the present study, Compound D and Compound A were examined for their ability to alter the progression of diabetic neuropathy. The rats received daily injection of Compound D or Compound A (10 mg/kg i.p.) or vehicle, starting at the onset of diabetes (hyperglycemia) and up to 6 months thereafter. Another group of non-diabetic rats also receiving vehicle were tested. All animals were continuously monitored for body weight, urine volume, blood sugar and glycated haemoglobin. In the first month of the study, all animals were tested for thermal nociception in a Hargreaves apparatus, weekly. After the first month this was done biweekly and then monthly. The testing consists of directing an infrared heat source onto the dorsal surface of the rat hindpaw and noting the time taken for the animal to remove its paw (see Hargreaves et al., supra, for a description of the experimental method). Each animal was tested 8 times and the mean withdrawal latency noted.
# Nerve conduction velocity was also measured every two weeks through the first eight weeks of treatment and every month thereafter through to the six months of treatment (see De Koning et al., Peptides, Vol. 8, No. 3, pp. 415-22 (1987) for a description of the experimental method). […] This was apparent starting at 8 weeks of treatment and persisted to a similar degree through to the six month termination point of the study.
# transgenic G1H mice = test: Onset of ALS in SOD transgenic mice model of FALS; assay type: in vivo
# Procedure: The effect of NAALADase inhibitors on the onset of ALS was tested using the superoxide dismutase (“SOD”) transgenic mice model of familial Amyotrophic Lateral Sclerosis (“FALS”), which is detailed in Gurney, M., Annals of Neurology (1996) 39:147-157, and otherwise well known in the art. One month old transgenic G1H mice were treated with daily intraperitoneal injections of a vehicle (50 mM HEPES-buffered saline) or a NAALADase inhibitor (50 mg/kg of Compound A). Clinical symptoms of the mice were monitored daily. The onset of clinical disease was scored by examining each mouse for its shaking of limbs when suspended in the air by its tail, cross spread of spinal reflexes, hindlimb paralysis, body weight and wheel running activity.
# [7] = test system: STZ-induced diabetic rats; test: Neuropathic pain in STZ model (thermal nociception, Hargreaves apparatus); assay type: in vivo, Male Sprague-Dawley rats; details: 10 mg/kg i.p. daily, treatment started 45 days post-STZ, FIGS. 7A and 7B
# Procedure: Male Sprague-Dawley rats (200-225 g) were rendered diabetic by intravenous administration of streptozotocin (“STZ”, 70 mg/kg in phosphate buffered saline). Diabetic animals were divided into five groups: one group receiving Compound A (10 mg/kg or 1 mg/kg), Compound D (10 mg/kg or 1 mg/kg) or vehicle. Another group of animals (non-STZ treated) served as non-diabetic controls. Drug/vehicle treatment was started in diabetic animals 45 days post-STZ administration. STZ-induced diabetic rats were tested for sensitivity to a heat source as soon as blood glucose levels rose to 320 mg/dl or above (30 days post STZ). The rats were then acclimated to a Hargreaves apparatus and thermal nociception was monitored using an infrared heat source directed into the dorsal surface of the hindpaw, and the time taken for the animal to remove its paw noted to the nearest 0.1 seconds (see Hargreaves et al., supra, for detailed experimental method). The intensity of the beam source was adjusted such that the mean latency for control animals (non-STZ treated) was approximately 10 seconds. Each animal was tested 8 times and the mean difference score (between mean non-diabetic control latency and mean diabetic latency) are graphically presented in FIGS. 7A and 7B.
smiles,measurement,setting,value
"O=C(O)CCC(CP(=O)(O)O)C(=O)O (stereo not shown) [Compound C, 2-(phosphonomethyl)pentanedioic acid]",TGF-β1 concentration,TGF-β [1]; FIG. 1,increased concentrations
same,TGF-β2 concentration,TGF-β [1]; FIG. 2,increased concentrations
same,neuroprotective effect in presence of TGF-β neutralizing antibodies,TGF-β [1]; FIG. 3,blocked the neuroprotective effect
same,neuroprotective effect in presence of FGF antibody,TGF-β [1]; FIG. 4,did not block the neuroprotective effect
same,difference scores between the two paws (withdrawal latency),[2],dramatically normalized
same,neuroprotective effect in presence of TGF-β neutralizing antibodies,TGF-β [3]; FIG. 5,significantly attenuated the neuroprotective effect
same,TGF-β1 levels,"TGF-β [3]; during occlusion and reperfusion, microdialysis, FIG. 6",significant rise
"O=C(O)CCC(CCCS)C(=O)O (stereo not shown) [Compound B, 2-(3-sulfanylpropyl)pentanedioic acid]",rotarod performance,"[4]; normal non-HD mice, 30 mg/kg",no effect
same,rotarod performance (time on rotarod),"[4]; transgenic HD mice, 30 mg/kg from 10 weeks of age, versus vehicle, FIG. 31",stayed longer on the rotarod
same,remaining axons relative to saline-treated rats,[5],twice
same,median survival time,"[6]; all treated transgenic HD mice, vehicle 158.5 days, p-value=0.07, FIG. 33",184 days
same,survival time,"[6]; female transgenic HD mice versus vehicle, p-value=0.03, FIG. 35",significantly prolonged survival time
"O=C(O)CCC(CP(=O)(O)Cc1c(F)c(F)c(F)c(F)c1F)C(=O)O (stereo not shown) [Compound A, 2-[[(2,3,4,5,6-pentafluorobenzyl)hydroxyphosphinyl]methyl]pentanedioic acid]",remaining axons relative to saline-treated rats,[5],3 times
same,sensory nerve conduction velocity,"STZ-diabetic animals; after 8 weeks, FIG. 9B",significant improvement
same,motor nerve conduction velocity,"STZ-diabetic animals; after 12 weeks, FIG. 9A",significant improvement
same,nerve conduction velocity,"BB/W diabetic rats; 10 mg/kg daily, versus diabetic vehicle controls, from 8 weeks to six months, FIG. 12",significantly less severe nerve conduction deficits
same,withdrawal latency,"BB/W diabetic rats; 10 mg/kg i.p. daily, versus diabetic vehicle-treated rats, from 4 weeks through six months of treatment, FIG. 11",longer withdrawal latencies
same,Difference in disease onset (treated versus vehicle),"transgenic G1H mice; Study 1, 50 mg/kg daily i.p.",32
same,Disease Onset For Compound A Treated Mice,"transgenic G1H mice; Study 1, 50 mg/kg daily i.p., vehicle 189",221 days
same,Difference in disease onset (treated versus vehicle),"transgenic G1H mice; Study 2, 50 mg/kg daily i.p.",25
same,Disease Onset For Compound A Treated Mice,"transgenic G1H mice; Study 2, 50 mg/kg daily i.p., vehicle 141",166 days
same,hyperalgesic response (withdrawal latency difference score),[7],completely reversed
